Test results as given in patent US20180200257A1, “METHODS FOR THE TREATMENT OF INFLAMMATORY DISORDERS” (Galapagos NV, priority 2015, published 2018).

Test system: subjects with moderately to severely active RA who have an inadequate response to methotrexate (MTX)
Assay: Study 2 (monotherapy) - Alanine Aminotransferase (ALT) levels
Assay type: in vivo, human
Description: Randomized, double-blind, placebo-controlled, multicenter, phase IIb dose finding study of Compound 1 (dosed as a [Compound 1:HCl:3H2O]) administered for 24 weeks as monotherapy to subjects with moderately to severely active rheumatoid arthritis who have an inadequate response to methotrexate alone
Double-blind, placebo-controlled, monotherapy study in subjects with moderately to severely active RA who have an inadequate response to methotrexate (MTX) (oral or parenteral).
280 subjects randomized to one of 3 doses of Compound 1 (dosed as a [Compound 1:HCl:3H2O]) or to placebo, given once daily (q.d.).
Twelve weeks of treatment with Compound 1 (dosed as a [Compound 1:HCl:3H2O]) at 50 mg, 100 mg, or 200 mg q.d.; or placebo. At Week 12, all subjects on placebo and the subjects on the 50 mg dose who have not achieved 20% improvement in swollen joint count (SJC66) and tender joint count (TJC68) will be assigned to 100 mg q.d. in a blinded fashion and will continue treatment until Week 24. Subjects in the other groups will maintain their randomized treatment until Week 24.
ALT levels determination is available at Quest Diagnostics, Clinical Trials, Quest House, 125-135 Staines Road, Hounslow, Middlesex, TW3 3JB, United Kingdom under Catalogue n#84460.
ALT catalyzes the exchange of the amino group of alanine with the oxogroup of 2-ketoglutarate to form pyruvate and glutamate. In the presence of lactic dehydrogenase, pyruvate reacts with NADH to form NAD+, measured spectrophotometrically. Guidelines for the ALT value have been issued by the association for Clinical Biochemistry and Laboratory Medicine, 130-132 Tooley Street LONDON SE1 2TU, united Kingdom, wherein the ALT value should be below 34 U/l in Female and below 52 U/L in male.
Subjects in the other groups maintained their randomized treatment until Week 24.

[1] = 12 weeks results, 50 mg q.d., week 1
[2] = 12 weeks results, 50 mg q.d., week 2
[3] = 12 weeks results, 50 mg q.d., week 4
[4] = 12 weeks results, 50 mg q.d., week 8
[5] = 12 weeks results, 50 mg q.d., week 12
[6] = 12 weeks results, 100 mg q.d., week 1
[7] = 12 weeks results, 100 mg q.d., week 2
[8] = 12 weeks results, 100 mg q.d., week 4
[9] = 12 weeks results, 100 mg q.d., week 8
[10] = 12 weeks results, 100 mg q.d., week 12
[11] = 12 weeks results, 200 mg q.d., week 1
[12] = 12 weeks results, 200 mg q.d., week 2
[13] = 12 weeks results, 200 mg q.d., week 4
[14] = 12 weeks results, 200 mg q.d., week 8
[15] = 12 weeks results, 200 mg q.d., week 12
[16] = 24 weeks results, 50 mg q.d. non responders switching to 100 mg q.d. at week 12, week 1
[17] = 24 weeks results, 50 mg q.d. non responders switching to 100 mg q.d. at week 12, week 2
[18] = 24 weeks results, 50 mg q.d. non responders switching to 100 mg q.d. at week 12, week 4
[19] = 24 weeks results, 50 mg q.d. non responders switching to 100 mg q.d. at week 12, week 8
[20] = 24 weeks results, 50 mg q.d. non responders switching to 100 mg q.d. at week 12, week 12
[21] = 24 weeks results, 50 mg q.d. non responders switching to 100 mg q.d. at week 12, week 16
[22] = 24 weeks results, 50 mg q.d. non responders switching to 100 mg q.d. at week 12, week 20
[23] = 24 weeks results, 50 mg q.d. non responders switching to 100 mg q.d. at week 12, week 24
[24] = 24 weeks results, 50 mg q.d. responders, week 1
[25] = 24 weeks results, 50 mg q.d. responders, week 2
[26] = 24 weeks results, 50 mg q.d. responders, week 4
[27] = 24 weeks results, 50 mg q.d. responders, week 8
[28] = 24 weeks results, 50 mg q.d. responders, week 12
[29] = 24 weeks results, 50 mg q.d. responders, week 16
[30] = 24 weeks results, 50 mg q.d. responders, week 20
[31] = 24 weeks results, 50 mg q.d. responders, week 24
[32] = 24 weeks results, 100 mg q.d., week 1
[33] = 24 weeks results, 100 mg q.d., week 2
[34] = 24 weeks results, 100 mg q.d., week 4
[35] = 24 weeks results, 100 mg q.d., week 8
[36] = 24 weeks results, 100 mg q.d., week 12
[37] = 24 weeks results, 100 mg q.d., week 16
[38] = 24 weeks results, 100 mg q.d., week 20
[39] = 24 weeks results, 100 mg q.d., week 24
[40] = 24 weeks results, 200 mg q.d., week 1
[41] = 24 weeks results, 200 mg q.d., week 2
[42] = 24 weeks results, 200 mg q.d., week 4
[43] = 24 weeks results, 200 mg q.d., week 8
[44] = 24 weeks results, 200 mg q.d., week 12
[45] = 24 weeks results, 200 mg q.d., week 16
[46] = 24 weeks results, 200 mg q.d., week 20
[47] = 24 weeks results, 200 mg q.d., week 24
[48] = 24 weeks results, placebo switching to 100 mg q.d. at week 12, week 16
[49] = 24 weeks results, placebo switching to 100 mg q.d. at week 12, week 20
[50] = 24 weeks results, placebo switching to 100 mg q.d. at week 12, week 24

O=C(Nc1nc2cccc(-c3ccc(CN4CCS(=O)(=O)CC4)cc3)n2n1)C1CC1 [Compound 1, cyclopropanecarboxylic acid {5-[4-(1,1-dioxo-thiomorpholin-4-ylmethyl)-phenyl]-[1,2,4]triazolo[1,5-a]pyridin-2-yl}-amide]
Study 2 - ALT Mean CFB [1]: −1.4 IU/L
Study 2 - ALT Mean percentage CFB [1]: −1.29%
Study 2 - ALT Mean CFB [2]: −2.6 IU/L
Study 2 - ALT Mean percentage CFB [2]: −3.25%
Study 2 - ALT Mean CFB [3]: −2.2 IU/L
Study 2 - ALT Mean percentage CFB [3]: −3.73%
Study 2 - ALT Mean CFB [4]: −3.0 IU/L
Study 2 - ALT Mean percentage CFB [4]: −0.73%
Study 2 - ALT Mean CFB [5]: −1.4 IU/L
Study 2 - ALT Mean percentage CFB [5]: 1.77%
Study 2 - ALT Mean CFB [6]: 0.4 IU/L
Study 2 - ALT Mean percentage CFB [6]: 13.98%
Study 2 - ALT Mean CFB [7]: 0.7 IU/L
Study 2 - ALT Mean percentage CFB [7]: 13.25%
Study 2 - ALT Mean CFB [8]: 0.3 IU/L
Study 2 - ALT Mean percentage CFB [8]: 17.82%
Study 2 - ALT Mean CFB [9]: −0.5 IU/L
Study 2 - ALT Mean percentage CFB [9]: 7.83%
Study 2 - ALT Mean CFB [10]: 1.3 IU/L
Study 2 - ALT Mean percentage CFB [10]: 14.61%
Study 2 - ALT Mean CFB [11]: −1.8 IU/L
Study 2 - ALT Mean percentage CFB [11]: −0.92%
Study 2 - ALT Mean CFB [12]: −1.1 IU/L
Study 2 - ALT Mean percentage CFB [12]: 1.07%
Study 2 - ALT Mean CFB [13]: −1.4 IU/L
Study 2 - ALT Mean percentage CFB [13]: 4.71%
Study 2 - ALT Mean CFB [14]: −0.8 IU/L
Study 2 - ALT Mean percentage CFB [14]: 8.41%
Study 2 - ALT Mean CFB [15]: −1.1 IU/L
Study 2 - ALT Mean percentage CFB [15]: 5.69%
Study 2 - ALT Mean CFB [16]: −0.1 IU/L
Study 2 - ALT Mean percentage CFB [16]: 0.97%
Study 2 - ALT Mean CFB [17]: −0.2 IU/L
Study 2 - ALT Mean percentage CFB [17]: −0.54%
Study 2 - ALT Mean CFB [18]: 0.6 IU/L
Study 2 - ALT Mean percentage CFB [18]: 4.48%
Study 2 - ALT Mean CFB [19]: −1.3 IU/L
Study 2 - ALT Mean percentage CFB [19]: −4.46%
Study 2 - ALT Mean CFB [20]: −0.9 IU/L
Study 2 - ALT Mean percentage CFB [20]: −1.26%
Study 2 - ALT Mean CFB [21]: 0.9 IU/L
Study 2 - ALT Mean percentage CFB [21]: 6.27%
Study 2 - ALT Mean CFB [22]: 0.3 IU/L
Study 2 - ALT Mean percentage CFB [22]: 4.86%
Study 2 - ALT Mean CFB [23]: 3.2 IU/L
Study 2 - ALT Mean percentage CFB [23]: 22.47%
Study 2 - ALT Mean CFB [24]: −1.7 IU/L
Study 2 - ALT Mean percentage CFB [24]: −1.89%
Study 2 - ALT Mean CFB [25]: −3.3 IU/L
Study 2 - ALT Mean percentage CFB [25]: −3.98%
Study 2 - ALT Mean CFB [26]: −3.0 IU/L
Study 2 - ALT Mean percentage CFB [26]: −5.93%
Study 2 - ALT Mean CFB [27]: −3.4 IU/L
Study 2 - ALT Mean percentage CFB [27]: 0.30%
Study 2 - ALT Mean CFB [28]: −1.6 IU/L
Study 2 - ALT Mean percentage CFB [28]: 2.63%
Study 2 - ALT Mean CFB [29]: −0.2 IU/L
Study 2 - ALT Mean percentage CFB [29]: 17.03%
Study 2 - ALT Mean CFB [30]: −0.5 IU/L
Study 2 - ALT Mean percentage CFB [30]: 8.38%
Study 2 - ALT Mean CFB [31]: −0.2 IU/L
Study 2 - ALT Mean percentage CFB [31]: 16.54%
Study 2 - ALT Mean CFB [32]: 0.4 IU/L
Study 2 - ALT Mean percentage CFB [32]: 13.98%
Study 2 - ALT Mean CFB [33]: 0.7 IU/L
Study 2 - ALT Mean percentage CFB [33]: 13.25%
Study 2 - ALT Mean CFB [34]: 0.3 IU/L
Study 2 - ALT Mean percentage CFB [34]: 17.82%
Study 2 - ALT Mean CFB [35]: −0.5 IU/L
Study 2 - ALT Mean percentage CFB [35]: 7.83%
Study 2 - ALT Mean CFB [36]: 1.3 IU/L
Study 2 - ALT Mean percentage CFB [36]: 14.61%
Study 2 - ALT Mean CFB [37]: 4.1 IU/L
Study 2 - ALT Mean percentage CFB [37]: 25.66%
Study 2 - ALT Mean CFB [38]: 1.8 IU/L
Study 2 - ALT Mean percentage CFB [38]: 37.63%
Study 2 - ALT Mean CFB [39]: 0.4 IU/L
Study 2 - ALT Mean percentage CFB [39]: 20.33%
Study 2 - ALT Mean CFB [40]: −1.8 IU/L
Study 2 - ALT Mean percentage CFB [40]: −0.92%
Study 2 - ALT Mean CFB [41]: −1.1 IU/L
Study 2 - ALT Mean percentage CFB [41]: 1.07%
Study 2 - ALT Mean CFB [42]: −1.4 IU/L
Study 2 - ALT Mean percentage CFB [42]: 4.71%
Study 2 - ALT Mean CFB [43]: −0.8 IU/L
Study 2 - ALT Mean percentage CFB [43]: 8.41%
Study 2 - ALT Mean CFB [44]: −1.1 IU/L
Study 2 - ALT Mean percentage CFB [44]: 5.69%
Study 2 - ALT Mean CFB [45]: 0.4 IU/L
Study 2 - ALT Mean percentage CFB [45]: 17.47%
Study 2 - ALT Mean CFB [46]: −0.6 IU/L
Study 2 - ALT Mean percentage CFB [46]: 6.69%
Study 2 - ALT Mean CFB [47]: −1.3 IU/L
Study 2 - ALT Mean percentage CFB [47]: 5.83%
Study 2 - ALT Mean CFB [48]: 0.4 IU/L
Study 2 - ALT Mean percentage CFB [48]: 15.03%
Study 2 - ALT Mean CFB [49]: 0.8 IU/L
Study 2 - ALT Mean percentage CFB [49]: 17.28%
Study 2 - ALT Mean CFB [50]: 0.9 IU/L
Study 2 - ALT Mean percentage CFB [50]: 18.10%
